Assay [1] has as its target T1, isolated recombinant JAK1 kinase domain (Homo sapiens, UniProt P23458).
T1 construct: isolated recombinant JAK1 and JAK2 kinase domain
Nature of the assay: JAK enzyme assay, JAK1 kinase domain (Caliper LabChip). The assay is classed as biochemical. To be noted: 1.5 nM JAK1, ATP 25 μM, Morrison tight binding model. The procedure, abridged: (§1)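 JAK1 (1.5 nM) or JAK2 (0.2 nM) kinase domain phosphorylated a 5-FAM JAK3-derived peptide (1.5 μM) with 25 μM ATP in HEPES pH 7.2, 2% DMSO, 30 min at 22° C. After EDTA stop, phosphorylated fraction was measured on Caliper LabChip; Ki from Morrison tight-binding fits corrected for ATP competition.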

The target in assay [2] is T2, isolated recombinant JAK2 kinase domain (Homo sapiens, UniProt O60674).
T2 construct: isolated recombinant JAK1 and JAK2 kinase domain
Nature of the assay: JAK enzyme assay, JAK2 kinase domain (Caliper LabChip). The assay is classed as biochemical. The settings on record: 0.2 nM JAK2, ATP 25 μM, Morrison tight binding model. In outline:
as §1

Assay [3] concerns JAK1-dependent STAT6 phosphorylation downstream of IL-13 stimulation, BEAS-2B human bronchial epithelial cells. The assay can be described thus: JAK1 pathway assay in cell lines: IL-13 stimulated STAT6 phosphorylation in BEAS-2B cells (MSD). Format: cell-based. The settings on record: IL-13 stimulation 15 min at EC90, read-out: IL-13 p-STAT6 BEAS-2B IC50. The protocol: JAK1 Pathway Assay in Cell Lines was Carried Out as Follows:
Inhibitor potency (EC50) was determined in cell-based assays designed to measure JAK1 dependent STAT phosphorylation. As noted above, inhibition of IL-4, IL-13, and IL-9 signaling by blocking the Jak/Stat signaling pathway can alleviate asthmatic symptoms in pre-clinical lung inflammation models (Mathew et al., 2001, J Exp Med 193(9): 1087-1096; Kudlacz et. al., 2008, Eur J. Pharmacol 582(1-3): 154-161).
In one assay approach, TF-1 human erythroleukemia cells obtained from the American Type Culture Collection (ATCC; Manassas, Va.) were used to measure JAK1-dependent STAT6 phosphorylation downstream of IL-13 stimulation. Prior to use in the assays, TF-1 cells were starved of GM-CSF overnight in OptiMEM medium (Life Technologies, Grand Island, N.Y.) supplemented with 0.5% charcoal/dextran stripped fetal bovine serum (FBS), 0.1 mM non-essential amino acids (NEAA), and 1 mM sodium pyruvate. The assays were run in 384-well plates in serum-free OptiMEM medium using 300,000 cells per well. In a second assay approach, BEAS-2B human bronchial epithelial cells obtained from ATCC were plated at 100,000 cells per well of a 96-well plate one day prior to the experiment. The BEAS-2B assay was run in complete growth medium (bronchial epithelial basal medium plus bulletkit; Lonza; Basel, Switzerland).
Test compounds were serially diluted 1:2 in DMSO and then diluted 1:50 in medium just before use. Diluted compounds were added to the cells, for a final DMSO concentration of […], and incubated for 30 m (for the TF-1 assay) or […] (for the BEAS-2B assay) at 37° C. Then, cells were stimulated with human recombinant cytokine at their respective EC90 concentrations, as previously determined for each individual lot. Cells were stimulated with IL-13 (R&D Systems, Minneapolis, Minn.) for 15 min at 37° C. The TF-1 cell reactions were stopped by the direct addition of 10× lysis buffer (Cell Signaling Technologies, Danvers, Mass.), whereas the BEAS-2B cell incubations were halted by the removal of medium and addition of 1× lysis buffer. The resultant samples were frozen in the plates at −80° C. Compound mediated inhibition of STAT6 phosphorylation was measured in the cell lysates using MesoScale Discovery (MSD) technology (Gaithersburg, Md.).

Like-named read-outs stand apart in the source and are kept apart here.

T1 sequence (P23458 875-1153 limits assumed): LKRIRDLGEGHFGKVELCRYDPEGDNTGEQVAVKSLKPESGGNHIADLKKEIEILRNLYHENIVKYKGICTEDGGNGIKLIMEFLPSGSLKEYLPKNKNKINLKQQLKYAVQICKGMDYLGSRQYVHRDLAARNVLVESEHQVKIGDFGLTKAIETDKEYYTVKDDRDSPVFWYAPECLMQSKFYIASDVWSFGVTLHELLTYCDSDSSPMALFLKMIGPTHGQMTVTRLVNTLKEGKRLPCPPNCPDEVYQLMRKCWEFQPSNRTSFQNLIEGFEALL
T2 sequence (O60674 849-1124 limits assumed): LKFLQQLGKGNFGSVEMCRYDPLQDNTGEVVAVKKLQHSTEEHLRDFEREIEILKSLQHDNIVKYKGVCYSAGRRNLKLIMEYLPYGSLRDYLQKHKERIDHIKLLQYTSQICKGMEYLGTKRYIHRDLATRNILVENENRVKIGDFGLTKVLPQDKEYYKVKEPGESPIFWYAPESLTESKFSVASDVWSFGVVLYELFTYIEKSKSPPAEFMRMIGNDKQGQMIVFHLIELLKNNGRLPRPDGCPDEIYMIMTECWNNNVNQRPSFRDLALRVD

In general, Ki refers to the equilibrium dissociation constant of an inhibitor or competing ligand from its target. As a reminder, the IC50 is the midpoint of a concentration-inhibition curve. As to `CS(=O)(=O)c1ccc(OC(F)F)c(-c2nn(C3CCOC3=O)cc2NC(=O)c2cnn3cccnc23)c1` (single isomer, unassigned) [Example 40, N-[3-[2-(difluoromethoxy)-5-methylsulfonyl-phenyl]-1-(2-oxotetrahydrofuran-3-yl)pyrazol-4-yl]pyrazolo[1,5-a]pyrimidine-3-carboxamide], the results for the inhibition constant (Ki) in assay [1] and in assay [2] were 1.1 nM and 0.62 nM, respectively. In addition, the IC50 in assay [3] (Homo sapiens, BEAS-2B, […]) amounted to 120 nM.

Turning to `CS(=O)(=O)c1ccc(OC(F)F)c(-c2nn(C3CCOC3=O)cc2NC(=O)c2cnn3cccnc23)c1` (single isomer, unassigned) [Example 41, N-[3-[2-(difluoromethoxy)-5-methylsulfonyl-phenyl]-1-(2-oxotetrahydrofuran-3-yl)pyrazol-4-yl] pyrazolo[1,5-a]pyrimidine-3-carboxamide], the figures for the inhibitory constant (Ki) in assay [1] and in assay [2] were 0.4 nM and 0.23 nM, respectively. Also, the half-maximal inhibitory concentration (IC50) in assay [3] came out at 99 nM.

In the case of `CN1CC[C@H](n2cc(NC(=O)c3cnn4cccnc34)c(-c3cc(Cl)ccc3OC(F)F)n2)C1=O` (stereo in doubt) [Example 2, N-[3-[5-chloro-2-(difluoromethoxy)phenyl]-1-[rac-(3S)-1-methyl-2-oxo-pyrrolidin-3-yl]pyrazol-4-yl]pyrazolo[1,5-a]pyrimidine-3-carboxamide], the Ki in assay [1] is 0.21 nM; in assay [2] it was 0.4 nM. Further, the IC50 in assay [3] (Homo sapiens, BEAS-2B, […]) came out at 12 nM.

As to `CN1CC[C@@H](n2cc(NC(=O)c3cnn4cccnc34)c(-c3cc(Cl)ccc3OC(F)F)n2)C1=O` (stereo in doubt) [Example 3, N-[3-[5-chloro-2-(difluoromethoxy)phenyl]-1-[rac-(3R)-1-methyl-2-oxo-pyrrolidin-3-yl]pyrazol-4-yl]pyrazolo[1,5-a]pyrimidine-3-carboxamide], the Ki was 2.5 nM in assay [1] and 0.81 nM in assay [2]. In addition, the half-maximal inhibitory concentration (IC50) in assay [3] (Homo sapiens, BEAS-2B, […]) is 50 nM.

Regarding `Cn1[nH]cc(-n2cc(NC(=O)c3cnn4cccnc34)c(-c3cc(Cl)ccc3OC(F)F)n2)c1=O` [Example 26], the values for the inhibition constant (Ki) in assay [1] and in assay [2] were 1.4 nM and 0.14 nM, respectively. Moreover, in assay [3] (Homo sapiens, BEAS-2B, […]), the IC50 amounted to 280 nM.

The record behind these values is patent US20200339604A1, “PYRAZOLOPYRIMIDINE COMPOUNDS AS JAK INHIBITORS” (Genentech, Inc., priority 2018, published 2020).
